Source: patent US8598158B2, “Fused tricyclic compounds for the treatment of inflammatory disorders” (Merck Sharp & Dohme Corp., priority 2009, dated 2013)
Where two headings read alike, the source gives them in different places.

Target: MK2 kinase (Homo sapiens, UniProt P49137)
Test: bMK2 IMAP assay
Description: 5× Reaction Buffer T (Molecular Device, R7364)
10 mM ATP (New England, P0756S)
Substrate: TAMRA labeled Glycogen.
5× Progressive Binding Buffer A (Molecular Device, R7279)
Progressive Binding Reagent (Molecular Device, R7281)
The final concentrations are: 1× inhibitor, 1% DMSO, 100 μM ATP, 50 pM MK2 and 100 nM substrate.
The reaction was stopped by adding 60 μl of 1:400 diluted Progressive Binding Reagent in 1× Progressive Binding Buffer A and incubating 30 min in the dark.
The degree of MK2 inhibition was calculated from the change in phosphorylated peptide generated in the presence of inhibitor compound added to each reaction followed by a 90 min reaction time. Basal MK2 activity was assessed in the absence of ATP which is required for enzymatic activity.

MK2 kinase, sequence (P49137 whole entry): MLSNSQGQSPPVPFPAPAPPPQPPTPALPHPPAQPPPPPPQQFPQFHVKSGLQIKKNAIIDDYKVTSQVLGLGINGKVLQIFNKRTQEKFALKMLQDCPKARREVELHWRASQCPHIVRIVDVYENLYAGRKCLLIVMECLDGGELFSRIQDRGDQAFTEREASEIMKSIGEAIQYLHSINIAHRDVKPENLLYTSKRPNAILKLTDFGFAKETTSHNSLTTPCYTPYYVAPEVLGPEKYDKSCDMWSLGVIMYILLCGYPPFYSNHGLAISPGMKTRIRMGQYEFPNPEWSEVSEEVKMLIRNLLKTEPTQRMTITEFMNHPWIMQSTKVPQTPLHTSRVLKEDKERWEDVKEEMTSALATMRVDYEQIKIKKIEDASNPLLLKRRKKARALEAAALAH

IC50 (IC50 Value, IMAP fluorescence polarization, 100 μM ATP, 50 pM MK2, 100 nM TAMRA peptide substrate) [nM]	IC50 (IC50 values, IMAP fluorescence polarization, 100 μM ATP, 50 pM MK2, 100 nM TAMRA peptide substrate) [nM]	IC50 [nM]	SMILES
10 to 100	38.3	–	O=C1c2oc(-c3ccc(Cl)cc3)cc2Cc2cc(N3CCNCC3)ccc2N1Cc1ccccc1-c1cccnc1 [Compound 5]
–	–	10 to 100	COc1ccncc1-c1ccccc1CN1C(=O)c2oc(-c3ccc(Cl)cc3)cc2Cc2cc(N3CCNCC3)ccc21 [Compound 21]
–	–	1000 to 10000	O=C1c2sc(-c3ccc(Cl)cc3)cc2Cc2cc(N3CCNCC3)ccc2N1Cc1ccccn1 [Compound 24]
–	–	1000 to 10000	N#Cc1ccc(-c2cc3c(s2)C(=O)Nc2ccc(N4CCNCC4)cc2C3)cc1 [Compound 25]
–	–	100 to 1000	N#Cc1ccc(-c2cc3c(s2)C(=O)N(Cc2ccccc2-c2cncnc2)c2ccc(N4CCNCC4)cc2C3)cc1 [Compound 27]
–	–	10 to 100	COc1ccc(-c2ccccc2CN2C(=O)c3oc(-c4ccc(Cl)cc4)cc3Cc3cc(N4CCNCC4)ccc32)cn1 [Compound 17]
–	–	1000 to 10000	O=C1Nc2ccc(N3CCNCC3)cc2Cc2cc(-c3ccc(Cl)cc3)sc21 [Compound 23]
–	–	10 to 100	Nc1ccc(-c2ccccc2CN2C(=O)c3oc(-c4ccc(Cl)cc4)cc3Cc3cc(N4CCNCC4)ccc32)cn1 [Compound 11]
–	–	100 to 1000	O=C1c2oc(-c3ccc(Cl)cc3)cc2Cc2cc(C3CCNCC3)ccc2N1Cc1ccccc1-c1ccccc1 [Compound 16]
–	–	100 to 1000	O=C1Nc2ccc(C3CCNCC3)cc2Cc2cc(-c3ccccc3)oc21 [Compound 18]
–	–	1000 to 10000	N#Cc1ccc(-c2cc3c(s2)C(=O)N(Cc2ccccn2)c2ccc(N4CCNCC4)cc2C3)cc1 [Compound 26]
–	–	10 to 100	CN1CCN(c2ccc3c(c2)Cc2cc(-c4ccc(Cl)cc4)oc2C(=O)N3Cc2ccccc2-c2cccnc2)CC1 [Compound 6]
–	–	1000 to 10000	O=C1c2oc(-c3ccccc3)cc2Cc2cc(C3CCNCC3)ccc2N1Cc1ccccc1-c1ccccc1 [Compound 20]
–	–	1 to 10	COCN1C(=O)c2oc(-c3ccc(C#N)cc3)cc2Cc2cc(N3CCNCC3)ccc21 [Compound 13]
–	–	10 to 100	COc1ncc(-c2ccccc2CN2C(=O)c3oc(-c4ccc(Cl)cc4)cc3Cc3cc(N4CCNCC4)ccc32)cn1 [Compound 22]
